# In ChEMBL document CHEMBL4765377, “Design, synthesis, and evaluation of amphiphilic sofalcone derivatives as potent Gram-positive antibacterial agents” (Eur J Med Chem, 2020):
# The source made the active and inactive calls. No cut-off for these calls is given here.
# Experiments:
# [1] = system: Staphylococcus aureus; experiment: Bactericidal activity against Staphylococcus aureus ATCC 29213 assessed as reduction in bacterial load at MIC concentration preincubated for 240 mins followed by compound washout further subculturing and measured after 24 hrs by time-kill assay; type: functional; settings: 4 h
# [2] = system: Staphylococcus aureus; experiment: Antibacterial activity against methicillin-resistant Staphylococcus aureus NCTC10442 assessed as reduction in bacterial growth after 24 hrs by CLSI based broth micro dilution method; type: functional
# [3] = system: Staphylococcus aureus; experiment: Antibacterial activity against methicillin-resistant Staphylococcus aureus N315 assessed as reduction in bacterial growth after 24 hrs by CLSI based broth micro dilution method; type: functional
# [4] = system: Staphylococcus aureus; experiment: Bactericidal activity against Staphylococcus aureus ATCC 29213 assessed as reduction in bacterial load at 2 time of MIC concentration preincubated for 240 mins followed by compound washout further subculturing and measured after 24 hrs by time-kill assay; type: functional; settings: 4 h
# [5] = system: Staphylococcus aureus; experiment: Antibacterial activity against Staphylococcus aureus ATCC 29213 infected in C57BL6 mouse assessed as reduction in bacterial load at 33.65 mmol/L, administered topically at 2 hrs interval for 3 days; type: functional; settings: time 3 day
# [6] = system: Staphylococcus aureus; experiment: Antibacterial activity against Staphylococcus aureus ATCC 29213 assessed as reduction in bacterial growth after 24 hrs by CLSI based broth micro dilution method; type: functional
# [7] = Cytotoxicity against human MDA-MB-231 cells assessed as viability at 6.25 ug/ml after 24 hrs by CCK8 assay relative to control; type: cell-based; settings: at 6.25 µg/mL, read-out: Activity
# [8] = Cytotoxicity against human MDA-MB-231 cells assessed as viability at 3.125 ug/ml after 24 hrs by CCK8 assay relative to control; type: cell-based; settings: at 3.125 µg/mL, read-out: Activity
# [9] = Cytotoxicity against human MDA-MB-231 cells assessed as viability at 25 ug/ml after 24 hrs by CCK8 assay relative to control; type: cell-based; settings: at 25 µg/mL, read-out: Activity
# [10] = system: Staphylococcus aureus; experiment: Antibacterial activity against methicillin-resistant Staphylococcus aureus N315 assessed as reduction in bacterial growth after 24 hrs in presence of magnesium ion by CLSI based broth micro dilution method; type: functional
# [11] = system: Staphylococcus aureus; experiment: Antibacterial activity against Staphylococcus aureus ATCC 29213 assessed as reduction in bacterial growth at 0.5 time of MIC after 14 days passage by CLSI based broth micro dilution method; type: functional, organism-based; settings: time 14.0 day
# [12] = Cytotoxicity against mouse NCTC clone 929 cells assessed as viability at 12.5 ug/ml after 24 hrs by CCK8 assay relative to control; type: cell-based; settings: at 12.5 µg/mL, read-out: Activity
# [13] = system: Staphylococcus aureus; experiment: Bactericidal activity against Staphylococcus aureus ATCC 29213 assessed as reduction in bacterial load at MIC concentration preincubated for 120 mins followed by compound washout further subculturing and measured after 24 hrs by time-kill assay; type: functional; settings: 2 h
# [14] = system: Staphylococcus aureus; experiment: Antibacterial activity against methicillin-resistant Staphylococcus aureus NCTC10442 assessed as reduction in bacterial growth after 24 hrs in presence of sodium ion by CLSI based broth micro dilution method; type: functional
# [15] = Cytotoxicity against mouse NCTC clone 929 cells assessed as viability at 3.125 ug/ml after 24 hrs by CCK8 assay relative to control; type: cell-based; settings: at 3.125 µg/mL, read-out: Activity
# [16] = Cytotoxicity against mouse corneal fibroblast cells assessed as viability at 25 ug/ml after 24 hrs by CCK8 assay relative to control; type: cell-based; settings: at 25 µg/mL, read-out: Activity
# [17] = Cytotoxicity against mouse NCTC clone 929 cells assessed as viability at 25 ug/ml after 24 hrs by CCK8 assay relative to control; type: cell-based; settings: at 25 µg/mL, read-out: Activity
# [18] = system: Escherichia coli; experiment: Antibacterial activity against Escherichia coli ATCC 25922 assessed as reduction in bacterial growth after 24 hrs in presence of sodium ion by CLSI based broth micro dilution method; type: functional
# [19] = system: Staphylococcus aureus; experiment: Bactericidal activity against Staphylococcus aureus ATCC 29213 assessed as reduction in bacterial load at 4 time of MIC concentration preincubated for 60 mins followed by compound washout further subculturing and measured after 24 hrs by time-kill assay; type: functional; settings: 1 h
# [20] = system: Staphylococcus aureus; experiment: Antibacterial activity against methicillin-resistant Staphylococcus aureus NCTC10442 assessed as reduction in bacterial growth after 24 hrs in presence of potassium ion by CLSI based broth micro dilution method; type: functional
# [21] = system: Staphylococcus aureus; experiment: Bactericidal activity against Staphylococcus aureus ATCC 29213 assessed as reduction in bacterial load at 8 time of MIC concentration preincubated for 30 mins followed by compound washout further subculturing and measured after 24 hrs by time-kill assay; type: functional; settings: 0.5 h
# [22] = Cytotoxicity against mouse NCTC clone 929 cells assessed as viability at 6.25 ug/ml after 24 hrs by CCK8 assay relative to control; type: cell-based; settings: at 6.25 µg/mL, read-out: Activity
# [23] = Cytotoxicity against mouse corneal fibroblast cells assessed as viability at 6.25 ug/ml after 24 hrs by CCK8 assay relative to control; type: cell-based; settings: at 6.25 µg/mL, read-out: Activity
# [24] = system: Staphylococcus aureus; experiment: Antibacterial activity against methicillin-resistant Staphylococcus aureus NCTC10442 assessed as reduction in bacterial growth after 24 hrs in presence of calcium ion by CLSI based broth micro dilution method; type: functional
# [25] = system: Staphylococcus aureus; experiment: Antibacterial activity against Staphylococcus aureus ATCC 29213 assessed as reduction in bacterial growth after 24 hrs in presence of sodium ion by CLSI based broth micro dilution method; type: functional
# [26] = Cytotoxicity against mouse corneal fibroblast cells assessed as viability at 12.5 ug/ml after 24 hrs by CCK8 assay relative to control; type: cell-based; settings: at 12.5 µg/mL, read-out: Activity
# [27] = system: Staphylococcus aureus; experiment: Antibacterial activity against methicillin-resistant Staphylococcus aureus NCTC10442 assessed as reduction in bacterial growth after 24 hrs in presence of magnesium ion by CLSI based broth micro dilution method; type: functional
# [28] = system: Staphylococcus aureus; experiment: Antibacterial activity against Staphylococcus aureus ATCC 29213 assessed as reduction in bacterial growth after 24 hrs in presence of calcium ion by CLSI based broth micro dilution method; type: functional
# [29] = system: Escherichia coli; experiment: Antibacterial activity against Escherichia coli ATCC 25922 assessed as reduction in bacterial growth after 24 hrs in presence of calcium ion by CLSI based broth micro dilution method; type: functional
# [30] = system: Staphylococcus aureus; experiment: Antibacterial activity against methicillin-resistant Staphylococcus aureus N315 assessed as reduction in bacterial growth after 24 hrs in presence of potassium ion by CLSI based broth micro dilution method; type: functional
# [31] = system: Cell membrane; experiment: Disruption of bacterial cell membrane in Staphylococcus aureus ATCC 29213 measured for 1 hr by SYTOX green staining based assay
# [32] = system: Staphylococcus aureus; experiment: Antibacterial activity against Staphylococcus aureus ATCC 29213 infected in C57BL6 mouse assessed as reduction in bacterial burden at 6.56 mmol/L, administered topically at 2 hrs interval for 3 days relative to control; type: functional; parameters: scale not given: the % may be the effect or the level left; settings: time 3 day
# [33] = system: Staphylococcus aureus; experiment: Bactericidal activity against Staphylococcus aureus ATCC 29213 assessed as reduction in bacterial load at 2 time of MIC concentration preincubated for 120 mins followed by compound washout further subculturing and measured after 24 hrs by time-kill assay; type: functional; settings: 2 h
# [34] = system: Staphylococcus aureus; experiment: Antibacterial activity against methicillin-resistant Staphylococcus aureus N315 assessed as reduction in bacterial growth after 24 hrs in presence of calcium ion by CLSI based broth micro dilution method; type: functional
# [35] = system: Cell membrane; experiment: Disruption of bacterial cell membrane in methicillin-resistant Staphylococcus aureus NCTC10442 measured for 1 hr by SYTOX green staining based assay
# [36] = system: Escherichia coli; experiment: Antibacterial activity against Escherichia coli ATCC 25922 assessed as reduction in bacterial growth after 24 hrs in presence of potassium ion by CLSI based broth micro dilution method; type: functional
# [37] = system: Escherichia coli; experiment: Antibacterial activity against Escherichia coli ATCC 25922 assessed as reduction in bacterial growth after 24 hrs by CLSI based broth micro dilution method; type: functional
# [38] = Cytotoxicity against mouse corneal fibroblast cells assessed as viability at 3.125 ug/ml after 24 hrs by CCK8 assay relative to control; type: cell-based; settings: at 3.125 µg/mL, read-out: Activity
# [39] = system: Staphylococcus aureus; experiment: Antibacterial activity against methicillin-resistant Staphylococcus aureus N315 assessed as reduction in bacterial growth after 24 hrs in presence of sodium ion by CLSI based broth micro dilution method; type: functional
# [40] = system: Staphylococcus aureus; experiment: Antibacterial activity against Staphylococcus aureus ATCC 29213 assessed as reduction in bacterial growth after 24 hrs in presence of potassium ion by CLSI based broth micro dilution method; type: functional
# [41] = system: Staphylococcus aureus; experiment: Antibacterial activity against Staphylococcus aureus ATCC 29213 infected in C57BL6 mouse assessed as reduction in bacterial load at 6.56 mmol/L, administered topically at 2 hrs interval for 3 days; type: functional; settings: time 3 day
# [42] = system: Staphylococcus aureus; experiment: Antibacterial activity against Staphylococcus aureus ATCC 29213 assessed as reduction in bacterial growth after 24 hrs in presence of magnesium ion by CLSI based broth micro dilution method; type: functional
# [43] = Cytotoxicity against human MDA-MB-231 cells assessed as viability at 12.5 ug/ml after 24 hrs by CCK8 assay relative to control; type: cell-based; settings: at 12.5 µg/mL, read-out: Activity
# [44] = system: Escherichia coli; experiment: Antibacterial activity against Escherichia coli ATCC 25922 assessed as reduction in bacterial growth after 24 hrs in presence of magnesium ion by CLSI based broth micro dilution method; type: functional
# [45] = system: Cell membrane; experiment: Disruption of bacterial cell membrane in Staphylococcus aureus ATCC 29213 at 8 times of MIC measured for 2 hr by propidium iodide and SYTO9 dye based LIVE/DEAD bacterial viability assay
# [46] = Hemolytic activity in rabbit RBC after 60 mins; type: ADME, cell-based, Oryctolagus cuniculus, Erythrocyte; settings: rabbit red blood cells (erythrocytes)
compound,measurement,setting,value
CN[C@H](CC(C)C)C(=O)N[C@H]1C(=O)N[C@@H](CC(N)=O)C(=O)N[C@H]2C(=O)N[C@H]3C(=O)N[C@H](C(=O)N[C@H](C(=O)O)c4cc(O)cc(O)c4-c4cc3ccc4O)[C@H](O)c3ccc(c(Cl)c3)Oc3cc2cc(c3O[C@@H]2O[C@H](CO)[C@@H](O)[C@H](O)[C@H]2O[C@H]2C[C@](C)(N)[C@H](O)[C@H](C)O2)Oc2ccc(cc2Cl)[C@H]1O [VANCOMYCIN],log(activity),[1],1.1
same,MIC,[2],1.56 µg/mL
same,MIC,[3],1.56 µg/mL
same,log(activity),[4],1.1
same,log(activity),[5],4.16
same,MIC,[6],0.78 µg/mL
CC(C)=CCOc1ccc(/C=C/C(=O)c2ccc(OCC=C(C)C)cc2OCC(=O)N[C@@H](CCCNC(=N)N)C(=O)N[C@@H](CCCNC(=N)N)C(N)=O)cc1,"viability at 24 h, 6.25 ug/ml",[7],89.3%
same,"viability at 24 h, 3.125 ug/ml",[8],95.6%
same,"viability at 24 h, 25 ug/ml",[9],67.7%
same,MIC,[10],1.56 µg/mL
same,Activity,[11],Active
same,"viability at 24 h, 12.5 ug/ml",[12],69.9%
same,log(activity),[13],2.6
same,MIC,[14],1.56 µg/mL
same,"viability at 24 h, 3.125 ug/ml",[15],82%
same,"viability at 24 h, 25 ug/ml",[16],59.9%
same,"viability at 24 h, 25 ug/ml",[17],55.2%
same,MIC,[18],12.5 µg/mL
same,log(activity),[19],3.25
same,MIC,[20],1.56 µg/mL
same,log(activity),[21],3.75
same,"viability at 24 h, 6.25 ug/ml",[22],79%
same,"viability at 24 h, 6.25 ug/ml",[23],76.3%
same,MIC,[24],1.56 µg/mL
same,MIC,[25],1.56 µg/mL
same,"viability at 24 h, 12.5 ug/ml",[26],64.2%
same,MIC,[27],1.56 µg/mL
same,MIC,[28],1.56 µg/mL
same,MIC,[2],1.56 µg/mL
same,MIC,[3],1.56 µg/mL
same,MIC,[29],6.25 µg/mL
same,MIC,[30],1.56 µg/mL
same,Activity,[31],Dose-dependent effect
same,Activity,[32],>99.99%
same,log(activity),[33],2.76
same,MIC,[34],1.56 µg/mL
same,Activity,[35],Dose-dependent effect
same,MIC,[36],6.25 µg/mL
same,MIC,[37],6.25 µg/mL
same,"viability at 24 h, 3.125 ug/ml",[38],98%
same,MIC,[39],1.56 µg/mL
same,MIC,[40],1.56 µg/mL
same,log(activity),[41],4.34
same,MIC,[42],1.56 µg/mL
same,"viability at 24 h, 12.5 ug/ml",[43],84.8%
same,MIC,[44],6.25 µg/mL
same,MIC,[6],1.56 µg/mL
same,Activity,[45],Active
same,HC50 at 1 h,[46],276 µg/mL
